# Assay results reported in patent US7074789B2, “Kinase inhibitors” (Amgen Inc., priority 1999, dated 2006).
# Columns and labels:
# Type in all cases: biochemical
# Itk = biological target: T1, Itk (Homo sapiens, UniProt Q08881); test: Kinase inhibition assay (33P transfer), Itk; conditions: read-out: Itk-1
# T1 construct: Kinases are expressed as either kinase domains or full length constructs; made in house
# T1 sequence (Q08881 1-620): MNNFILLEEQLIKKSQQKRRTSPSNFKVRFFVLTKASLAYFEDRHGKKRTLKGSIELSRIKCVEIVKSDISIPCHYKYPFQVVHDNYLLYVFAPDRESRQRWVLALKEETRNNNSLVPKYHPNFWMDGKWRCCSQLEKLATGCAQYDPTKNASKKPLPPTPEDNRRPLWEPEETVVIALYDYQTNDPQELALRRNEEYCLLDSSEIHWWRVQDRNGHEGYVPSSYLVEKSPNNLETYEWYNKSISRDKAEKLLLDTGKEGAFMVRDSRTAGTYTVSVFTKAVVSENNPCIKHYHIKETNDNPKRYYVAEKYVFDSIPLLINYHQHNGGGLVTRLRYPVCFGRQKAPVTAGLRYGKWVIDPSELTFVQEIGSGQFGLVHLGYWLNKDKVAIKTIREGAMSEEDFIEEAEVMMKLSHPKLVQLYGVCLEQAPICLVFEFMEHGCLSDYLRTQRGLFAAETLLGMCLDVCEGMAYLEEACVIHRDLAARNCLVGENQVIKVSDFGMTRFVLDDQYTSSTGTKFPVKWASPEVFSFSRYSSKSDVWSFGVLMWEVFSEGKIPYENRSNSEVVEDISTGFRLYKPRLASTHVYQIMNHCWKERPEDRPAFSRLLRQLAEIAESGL
# Method in brief: (§1)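 Kinase domains or full-length enzymes, GST- or polyHis-tagged, were expressed in E. coli or baculovirus High Five cells and affinity-purified. Transfer of 33PO4 from ATP onto plate-bound poly(Glu,Tyr) 4:1 or poly(Arg,Ser) 3:1 was counted by liquid scintillation after a 0.5% phosphoric acid wash. IC50 = concentration halving incorporation.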
# IGFR-1 = biological target: T2, IGFR-1 (Homo sapiens, UniProt P08069); test: Kinase inhibition assay, IGFR-1 (Table 2); conditions: Table 2, kinase inhibition class
# T2 construct: Kinases are expressed as either kinase domains or full length constructs; made in house
# Src = biological target: T3, Src (Homo sapiens, UniProt P12931); test: Kinase inhibition assay (33P transfer), Src; conditions: Table 6, Src-1 kinase inhibition class
# T3 construct: Kinases are expressed as either kinase domains or full length constructs; made in house
# Method in brief: as §1
# Kdr = biological target: T4, Kdr (Homo sapiens, UniProt P35968); test: Kinase inhibition assay (33P transfer), Kdr; conditions: read-out: KDR-1
# T4 construct: Kinases are expressed as either kinase domains or full length constructs; made in house
# Method in brief: (§2)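 Each kinase, expressed as a GST- or polyHis-tagged domain or full-length protein, phosphorylated plate-attached poly(Glu,Tyr) 4:1 or poly(Arg,Ser) 3:1 using 33P-ATP. Bound radioactivity was measured by scintillation after a 0.5% phosphoric acid wash.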
# ErbB2 = biological target: T5, ErbB2 (Homo sapiens, UniProt P04626); test: Kinase inhibition assay (33P transfer), ErbB2; conditions: read-out: ErbB2-2
# T5 construct: Kinases are expressed as either kinase domains or full length constructs; made in house
# Method in brief: as §1
# Fyn = biological target: T6, Fyn (Homo sapiens, UniProt P06241); test: Kinase inhibition assay (33P transfer), Fyn; conditions: read-out: Fyn-1
# T6 construct: Kinases are expressed as either kinase domains or full length constructs; made in house
# Method in brief: as §1
# FGFR1 = biological target: T7, FGFR1 (Homo sapiens, UniProt P11362); test: Kinase inhibition assay (33P transfer), FGFR1; conditions: read-out: FGFR1-1
# T7 construct: Kinases are expressed as either kinase domains or full length constructs; made in house
# AKT = biological target: T8, AKT (Homo sapiens, UniProt Q9Y243); test: Kinase inhibition assay (33P transfer), AKT; conditions: Table 2, kinase inhibition class; read-out: AKT3-1
# T8 construct: Kinases are expressed as either kinase domains or full length constructs; made in house
# Method in brief: as §2
# Hck-1 = biological target: T9, Hck-1 (Homo sapiens, UniProt P08631); test: Kinase inhibition assay (33P transfer), Hck; conditions: Table 6, Hck-1 kinase inhibition class
# T9 construct: Kinases are expressed as either kinase domains or full length constructs; made in house
# Flt-1 = biological target: T10, Flt-1 (Homo sapiens, UniProt P17948); test: Kinase inhibition assay (33P transfer), Flt-1
# T10 construct: Kinases are expressed as either kinase domains or full length constructs; made in house
# Method in brief: as §1
# Ret-1 = biological target: T11, Ret-1 (Homo sapiens, UniProt P07949); test: Kinase inhibition assay (33P transfer), Ret; conditions: Table 6, Ret-1 kinase inhibition class
# T11 construct: Kinases are expressed as either kinase domains or full length constructs; made in house
# T11 sequence (P07949 29-1114): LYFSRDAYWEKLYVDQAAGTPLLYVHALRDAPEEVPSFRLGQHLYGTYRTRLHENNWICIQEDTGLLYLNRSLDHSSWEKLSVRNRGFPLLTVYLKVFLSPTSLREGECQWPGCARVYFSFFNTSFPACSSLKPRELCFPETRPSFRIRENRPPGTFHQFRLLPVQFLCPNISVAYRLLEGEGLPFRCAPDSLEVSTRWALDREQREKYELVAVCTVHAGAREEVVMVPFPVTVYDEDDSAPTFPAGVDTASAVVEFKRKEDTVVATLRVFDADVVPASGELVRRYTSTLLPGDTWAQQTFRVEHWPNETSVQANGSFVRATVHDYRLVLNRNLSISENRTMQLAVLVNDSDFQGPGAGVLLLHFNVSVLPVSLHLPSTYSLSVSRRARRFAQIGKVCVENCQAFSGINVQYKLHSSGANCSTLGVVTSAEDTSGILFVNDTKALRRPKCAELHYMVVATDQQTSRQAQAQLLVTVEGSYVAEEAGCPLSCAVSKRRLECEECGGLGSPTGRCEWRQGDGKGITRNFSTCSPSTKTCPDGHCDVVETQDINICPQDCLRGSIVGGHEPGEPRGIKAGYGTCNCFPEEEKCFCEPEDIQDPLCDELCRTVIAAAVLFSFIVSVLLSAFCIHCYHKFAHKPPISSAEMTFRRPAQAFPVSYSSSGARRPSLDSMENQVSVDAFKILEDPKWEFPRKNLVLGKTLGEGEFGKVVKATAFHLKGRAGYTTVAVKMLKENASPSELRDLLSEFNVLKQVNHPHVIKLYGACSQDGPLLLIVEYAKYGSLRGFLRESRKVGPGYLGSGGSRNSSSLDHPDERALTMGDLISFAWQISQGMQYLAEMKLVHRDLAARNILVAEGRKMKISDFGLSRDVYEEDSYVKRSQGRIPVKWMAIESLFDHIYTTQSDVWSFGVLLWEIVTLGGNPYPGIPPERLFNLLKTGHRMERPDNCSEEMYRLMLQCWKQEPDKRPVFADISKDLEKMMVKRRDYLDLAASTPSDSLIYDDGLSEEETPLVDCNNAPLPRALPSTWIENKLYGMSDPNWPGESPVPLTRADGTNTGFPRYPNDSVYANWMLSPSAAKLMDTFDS
# Zap-70 = biological target: T12, Zap-70 (Homo sapiens, UniProt P43403); test: Kinase inhibition assay (33P transfer), Zap-70; conditions: read-out: Zap-1
# T12 construct: Kinases are expressed as either kinase domains or full length constructs; made in house
# T12 sequence (P43403 1-619): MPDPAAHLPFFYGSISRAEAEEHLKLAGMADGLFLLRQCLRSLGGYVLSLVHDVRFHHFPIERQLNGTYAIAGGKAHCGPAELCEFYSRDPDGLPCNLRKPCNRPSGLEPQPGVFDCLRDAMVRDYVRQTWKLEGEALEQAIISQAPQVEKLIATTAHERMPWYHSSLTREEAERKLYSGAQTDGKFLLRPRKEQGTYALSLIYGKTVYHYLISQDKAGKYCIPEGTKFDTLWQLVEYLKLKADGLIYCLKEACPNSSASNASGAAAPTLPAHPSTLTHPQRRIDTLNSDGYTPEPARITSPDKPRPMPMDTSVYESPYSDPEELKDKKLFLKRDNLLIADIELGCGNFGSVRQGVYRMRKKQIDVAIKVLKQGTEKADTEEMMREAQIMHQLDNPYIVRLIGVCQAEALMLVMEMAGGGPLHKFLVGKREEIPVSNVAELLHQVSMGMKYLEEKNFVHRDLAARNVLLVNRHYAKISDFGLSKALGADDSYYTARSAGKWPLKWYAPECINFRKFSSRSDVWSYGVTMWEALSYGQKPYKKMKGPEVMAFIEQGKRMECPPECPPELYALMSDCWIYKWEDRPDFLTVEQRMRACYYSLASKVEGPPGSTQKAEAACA
# Method in brief: as §2
# PDGFRB = biological target: T13, PDGFRB (Homo sapiens, UniProt P09619); test: Kinase inhibition assay (33P transfer), PDGFRB; conditions: read-out: PDGFRB-1
# T13 construct: Kinases are expressed as either kinase domains or full length constructs; made in house
# c-Met = biological target: T14, c-Met (Homo sapiens, UniProt P08581); test: Kinase inhibition assay (33P transfer), c-Met; conditions: Table 2, kinase inhibition class; read-out: Met-1
# T14 construct: Kinases are expressed as either kinase domains or full length constructs; made in house
# Method in brief: as §1
# ErbB4 = biological target: T15, ErbB4 (Homo sapiens, UniProt Q15303); test: Kinase inhibition assay (33P transfer), ErbB4; conditions: read-out: ErbB4-1
# T15 construct: Kinases are expressed as either kinase domains or full length constructs; made in house
# T15 sequence (Q15303 26-1308, species assumed): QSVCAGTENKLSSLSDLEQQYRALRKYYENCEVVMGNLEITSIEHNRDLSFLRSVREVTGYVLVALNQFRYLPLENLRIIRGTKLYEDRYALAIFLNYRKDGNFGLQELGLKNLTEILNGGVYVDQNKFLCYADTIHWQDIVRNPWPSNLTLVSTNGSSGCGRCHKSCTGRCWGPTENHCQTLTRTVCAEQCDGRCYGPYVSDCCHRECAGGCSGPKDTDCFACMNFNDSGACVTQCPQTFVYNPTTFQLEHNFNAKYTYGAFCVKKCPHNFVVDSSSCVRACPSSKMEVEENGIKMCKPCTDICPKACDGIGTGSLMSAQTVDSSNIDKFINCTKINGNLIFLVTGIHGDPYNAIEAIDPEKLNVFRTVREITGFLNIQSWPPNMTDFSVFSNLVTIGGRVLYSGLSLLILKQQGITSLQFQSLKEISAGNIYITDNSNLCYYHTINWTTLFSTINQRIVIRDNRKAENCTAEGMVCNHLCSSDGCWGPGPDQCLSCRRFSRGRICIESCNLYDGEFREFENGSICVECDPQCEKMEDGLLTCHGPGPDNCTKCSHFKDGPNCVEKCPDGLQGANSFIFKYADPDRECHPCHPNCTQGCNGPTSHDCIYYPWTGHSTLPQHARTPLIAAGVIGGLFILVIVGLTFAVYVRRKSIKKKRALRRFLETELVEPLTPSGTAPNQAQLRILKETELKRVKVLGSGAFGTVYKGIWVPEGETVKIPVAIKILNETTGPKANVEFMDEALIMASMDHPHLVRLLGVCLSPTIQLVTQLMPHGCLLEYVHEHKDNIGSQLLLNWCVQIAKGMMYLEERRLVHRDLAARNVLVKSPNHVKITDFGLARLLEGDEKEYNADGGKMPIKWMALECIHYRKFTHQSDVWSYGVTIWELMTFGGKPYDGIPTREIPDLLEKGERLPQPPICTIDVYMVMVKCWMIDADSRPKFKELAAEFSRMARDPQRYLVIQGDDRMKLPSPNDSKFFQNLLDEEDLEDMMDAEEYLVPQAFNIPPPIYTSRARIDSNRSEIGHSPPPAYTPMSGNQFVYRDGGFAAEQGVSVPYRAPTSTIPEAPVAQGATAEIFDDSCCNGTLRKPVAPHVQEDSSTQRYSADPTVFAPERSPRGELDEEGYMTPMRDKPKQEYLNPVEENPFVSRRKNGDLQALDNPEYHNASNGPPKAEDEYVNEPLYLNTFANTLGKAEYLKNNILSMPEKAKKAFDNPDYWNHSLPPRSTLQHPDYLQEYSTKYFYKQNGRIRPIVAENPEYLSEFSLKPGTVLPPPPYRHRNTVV
# Lyn = biological target: T16, Lyn (Homo sapiens, UniProt P07948); test: Kinase inhibition assay (33P transfer), Lyn; conditions: Table 6, Lyn-1 kinase inhibition class
# T16 construct: Kinases are expressed as either kinase domains or full length constructs; made in house
# Method in brief: as §1
# EGFR = biological target: T17, EGFR (Homo sapiens, UniProt P00533); test: Kinase inhibition assay (33P transfer), EGFR; conditions: Table 2, kinase inhibition class; read-out: EGFR-1
# T17 construct: Kinases are expressed as either kinase domains or full length constructs; made in house
# T17 sequence (P00533 25-1210, species assumed): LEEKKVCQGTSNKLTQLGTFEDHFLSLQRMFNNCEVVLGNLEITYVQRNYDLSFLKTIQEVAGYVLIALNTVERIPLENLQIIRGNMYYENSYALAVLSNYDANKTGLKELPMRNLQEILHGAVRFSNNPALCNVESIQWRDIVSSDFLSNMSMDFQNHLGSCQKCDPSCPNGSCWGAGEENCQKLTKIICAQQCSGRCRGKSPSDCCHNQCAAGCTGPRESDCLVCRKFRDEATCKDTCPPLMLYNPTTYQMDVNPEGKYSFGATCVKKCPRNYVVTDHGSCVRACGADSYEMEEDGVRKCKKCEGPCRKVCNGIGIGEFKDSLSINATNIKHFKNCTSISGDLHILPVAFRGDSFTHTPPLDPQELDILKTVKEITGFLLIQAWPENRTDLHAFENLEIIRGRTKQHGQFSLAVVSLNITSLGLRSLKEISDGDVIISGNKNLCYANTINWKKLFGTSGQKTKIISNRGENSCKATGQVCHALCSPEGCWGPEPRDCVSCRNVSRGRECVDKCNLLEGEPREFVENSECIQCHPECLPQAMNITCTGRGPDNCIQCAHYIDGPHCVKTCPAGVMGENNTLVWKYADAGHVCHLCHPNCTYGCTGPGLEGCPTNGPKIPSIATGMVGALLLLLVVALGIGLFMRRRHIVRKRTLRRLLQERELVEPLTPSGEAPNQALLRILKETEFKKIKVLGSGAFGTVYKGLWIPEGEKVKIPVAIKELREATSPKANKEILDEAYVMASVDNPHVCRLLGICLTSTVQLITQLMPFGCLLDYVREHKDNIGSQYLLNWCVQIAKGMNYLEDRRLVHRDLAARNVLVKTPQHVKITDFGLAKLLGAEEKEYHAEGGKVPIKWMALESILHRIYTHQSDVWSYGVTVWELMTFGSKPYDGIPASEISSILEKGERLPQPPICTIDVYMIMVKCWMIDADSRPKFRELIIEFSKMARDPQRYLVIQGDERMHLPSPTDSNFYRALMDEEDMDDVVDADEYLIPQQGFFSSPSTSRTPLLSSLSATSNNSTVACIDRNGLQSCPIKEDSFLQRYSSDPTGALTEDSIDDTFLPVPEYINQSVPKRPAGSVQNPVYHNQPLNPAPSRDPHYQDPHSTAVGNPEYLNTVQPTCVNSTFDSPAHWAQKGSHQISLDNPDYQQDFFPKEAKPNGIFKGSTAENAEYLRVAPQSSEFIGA
# Method in brief: as §1
# Lck = biological target: T18, Lck (Homo sapiens, UniProt P06239); test: Kinase inhibition assay (33P transfer), Lck; conditions: read-out: Lck-1
# T18 construct: Kinases are expressed as either kinase domains or full length constructs; made in house
# Method in brief: as §2
# Tek = biological target: T19, Tek (Homo sapiens, UniProt Q02763); test: Kinase inhibition assay (33P transfer), Tek; conditions: read-out: Tek-1
# T19 construct: Kinases are expressed as either kinase domains or full length constructs; made in house
# T19 sequence (Q02763 23-1124, species assumed): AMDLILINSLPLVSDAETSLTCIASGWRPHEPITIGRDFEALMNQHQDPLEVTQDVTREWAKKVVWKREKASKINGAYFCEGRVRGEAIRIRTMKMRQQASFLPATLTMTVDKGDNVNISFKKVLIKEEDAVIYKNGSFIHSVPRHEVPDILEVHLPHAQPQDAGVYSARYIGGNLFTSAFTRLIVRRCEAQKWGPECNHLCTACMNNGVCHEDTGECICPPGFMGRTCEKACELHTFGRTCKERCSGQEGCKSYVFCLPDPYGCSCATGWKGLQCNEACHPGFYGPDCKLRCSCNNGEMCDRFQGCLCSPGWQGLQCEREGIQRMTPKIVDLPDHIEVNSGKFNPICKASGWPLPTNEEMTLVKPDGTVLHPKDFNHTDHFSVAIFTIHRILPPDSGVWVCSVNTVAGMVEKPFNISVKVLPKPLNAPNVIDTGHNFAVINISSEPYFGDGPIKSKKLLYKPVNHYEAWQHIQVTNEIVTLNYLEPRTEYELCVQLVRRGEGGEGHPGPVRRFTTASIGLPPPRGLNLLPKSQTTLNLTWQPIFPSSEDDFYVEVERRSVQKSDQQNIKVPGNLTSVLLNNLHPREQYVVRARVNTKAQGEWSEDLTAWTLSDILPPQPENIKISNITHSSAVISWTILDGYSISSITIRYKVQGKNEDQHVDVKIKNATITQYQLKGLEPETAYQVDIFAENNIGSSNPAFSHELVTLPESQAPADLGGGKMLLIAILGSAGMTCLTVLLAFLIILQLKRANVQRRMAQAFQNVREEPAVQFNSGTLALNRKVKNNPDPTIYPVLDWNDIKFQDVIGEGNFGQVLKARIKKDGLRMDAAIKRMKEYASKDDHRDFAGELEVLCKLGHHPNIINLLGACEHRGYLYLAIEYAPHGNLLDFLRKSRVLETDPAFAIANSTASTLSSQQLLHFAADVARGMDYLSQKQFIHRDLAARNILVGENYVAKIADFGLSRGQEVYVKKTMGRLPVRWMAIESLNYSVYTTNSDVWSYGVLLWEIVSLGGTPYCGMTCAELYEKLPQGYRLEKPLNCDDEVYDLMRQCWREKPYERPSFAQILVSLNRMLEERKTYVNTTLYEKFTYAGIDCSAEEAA
# Method in brief: as §1
SMILES,IC50 (Itk),IC50 (IGFR-1),IC50 (Src),IC50 (Kdr),IC50 (ErbB2),IC50 (Fyn),IC50 (FGFR1),IC50 (AKT),IC50 (Hck-1),IC50 (Flt-1),IC50 (Ret-1),IC50 (Zap-70),IC50 (PDGFRB),IC50 (c-Met),IC50 (ErbB4),IC50 (Lyn),IC50 (EGFR),IC50 (Lck),IC50 (Tek)
COc1cc(Nc2ncnc(-n3c(NCCc4ccccc4)nc4ccccc43)n2)cc(OC)c1OC [Compound 509],4.82 to 7.03 µM,> 9.04 µM,> 9.04 µM,< 0.804 µM,4.82 to 7.03 µM,> 9.04 µM,0.804 to 4.82 µM,> 9.04 µM,> 9.04 µM,0.804 to 4.82 µM,< 0.804 µM,> 9.04 µM,0.804 to 4.82 µM,> 9.04 µM,0.804 to 4.82 µM,0.804 to 4.82 µM,0.804 to 4.82 µM,0.804 to 4.82 µM,7.03 to 9.04 µM
COc1cc(Nc2ncnc(Nc3ccc4c(cnn4Cc4ccccc4)c3)n2)cc(OC)c1OC [Compound 177],7.24 to 9.31 µM,0.827 to 4.96 µM,< 0.827 µM,0.827 to 4.96 µM,< 0.827 µM,< 0.827 µM,4.96 to 7.24 µM,4.96 to 7.24 µM,0.827 to 4.96 µM,0.827 to 4.96 µM,< 0.827 µM,4.96 to 7.24 µM,< 0.827 µM,0.827 to 4.96 µM,< 0.827 µM,< 0.827 µM,< 0.827 µM,< 0.827 µM,0.827 to 4.96 µM
COc1cc(Nc2ncnc(N3c4ccccc4CC3C)n2)cc(OC)c1OC (stereo not shown) [Compound 610],1.02 to 6.1 µM,1.02 to 6.1 µM,1.02 to 6.1 µM,< 1.02 µM,1.02 to 6.1 µM,1.02 to 6.1 µM,< 1.02 µM,> 11.4 µM,> 11.4 µM,< 1.02 µM,< 1.02 µM,> 11.4 µM,< 1.02 µM,1.02 to 6.1 µM,1.02 to 6.1 µM,< 1.02 µM,1.02 to 6.1 µM,< 1.02 µM,6.1 to 8.9 µM
CCc1cccc(Nc2ncnc(-n3c(N)nc4ccccc43)n2)c1 [Compound 655],1.21 to 7.24 µM,< 1.21 µM,7.24 to 10.6 µM,< 1.21 µM,1.21 to 7.24 µM,> 13.6 µM,1.21 to 7.24 µM,> 13.6 µM,> 13.6 µM,< 1.21 µM,< 1.21 µM,> 13.6 µM,1.21 to 7.24 µM,1.21 to 7.24 µM,7.24 to 10.6 µM,7.24 to 10.6 µM,1.21 to 7.24 µM,1.21 to 7.24 µM,7.24 to 10.6 µM
COc1cc(Nc2ncnc(-c3cccnc3NC(C)C)n2)cc(OC)c1OC [Compound 1089],6.05 to 8.83 µM,> 11.4 µM,1.01 to 6.05 µM,< 1.01 µM,> 11.4 µM,1.01 to 6.05 µM,> 11.4 µM,> 11.4 µM,> 11.4 µM,> 11.4 µM,< 1.01 µM,> 11.4 µM,< 1.01 µM,> 11.4 µM,> 11.4 µM,< 1.01 µM,> 11.4 µM,< 1.01 µM,> 11.4 µM
COc1cc(Nc2ncnc(-n3c(NCc4ccc(F)cc4)nc4ccccc43)n2)cc(OC)c1OC [Compound 514],> 8.97 µM,> 8.97 µM,> 8.97 µM,< 0.798 µM,> 8.97 µM,> 8.97 µM,< 0.798 µM,> 8.97 µM,> 8.97 µM,< 0.798 µM,< 0.798 µM,> 8.97 µM,< 0.798 µM,> 8.97 µM,> 8.97 µM,> 8.97 µM,> 8.97 µM,> 8.97 µM,> 8.97 µM
COc1cc(Nc2ncnc(N3CCCc4ccc(C(F)(F)F)cc43)n2)cc(OC)c1OC [Compound 518],> 9.75 µM,> 9.75 µM,> 9.75 µM,7.58 to 9.75 µM,0.867 to 5.2 µM,5.2 to 7.58 µM,> 9.75 µM,> 9.75 µM,> 9.75 µM,> 9.75 µM,7.58 to 9.75 µM,> 9.75 µM,> 9.75 µM,> 9.75 µM,> 9.75 µM,0.867 to 5.2 µM,< 0.867 µM,> 9.75 µM,7.58 to 9.75 µM
